# Patent EP2891491A1, “Use of (r)-phenylpiracetam for the treatment of sleep disorders” (Merz Pharma GmbH & Co. KGaA, priority 2014, dated 2015)
# Where “and” joins values, the source holds several entries; their conditions need not be identical. Identical values can stand only once.
# Legend:
# rats = assay: locomotor activity (horizontal activity) in rats; type: in vivo; details: i.p. 15 min before test, starting at the dose of 100 mg/kg
# Method: EXAMPLE 4: Effect of (R)-phenylpiracetam on locomotor activity (horizontal activity) in rats - Fig. 3
# Experimentally naive adult male Sprague-Dawley rats (230-300 g) are kept four per cage, in a room with controlled temperature (21 ± 1°C) and humidity. Food and water are available ad libitum and the animals are kept under an alternating 12 h / 12 h day-night cycle (lights on at 07.00) for at least 6 days before the experiments are started. Each animal is used only once. Experimental group consist of 8 animals per group.
# Horizontal locomotor activity was measured in 8 perspex boxes (ENV-515-16, 43.2 cm x 43.2 cm x 30 cm), Med-Associates Inc.) equipped with 4 arrays of 16 infrared photobeams placed 3 cm above the floor. Distance travelled (DT) was used in further analysis as a measure of locomotion.
# (R)-Phenylpiracetam was administered i. p. in a volume of 2 ml/kg in saline
# Data with locomotor activity were analyzed by means of Kruskal-Wallis ANOVA on ranks followed, if significant, by rank sum test.
# [1] = brain microdialysis: concentration of (R)-phenylpiracetam in the brain after i.p. application; type: in vivo, rats; details: rat
# Method: EXAMPLE 3: Assessment of the concentration of (R)-phenylpiracetam in the brain using brain microdialysis - Figs. 2, 14, 15
# Naive adult male Sprague-Dawley rats (240-360 g, Janvier, France) were used for the study kept under standard conditions. All experiments were conducted during the light period of the day-night cycle.
# Siliconized guide cannula (MAB 6.14.IC) (MAB, Stockhom, Sweden) were implanted unilaterally in pentobarbital anaesthetized animals aiming at the caudatus putamen (CPu; AP: +0.1, LM: ± 2.6, DV: -3.2 mm relative to bregma; -3.3 mm interaural) according to the atlas of Paxinos and Watson (loc. cit.). Rats were given at least 3 days to recover from surgery before starting microdialysis experiments.
# Microdialysis experiments were performed in the home cage of the animal. A microdialysis probe (MAB 6.14.4.; 4 mm exposed membrane length, polyethersulfone (PES) membrane; MAB, Stockholm, Sweden) was lowered through the guide cannula into the CPu (ventral position of probe tip with reference to the skull: -7.2 mm) ca. 12 hours before the sampling and left in place for the whole testing period.
# The probes were perfused with aCSF at a flow rate of 2 µl/min using a CMA 102 perfusion pump (CMA, Solna, Sweden). The composition of the aCSF was 147 mM Na^+, 2.7 mM K^+, 1.2 mM Ca^2+, 0.85 mM Mg^2+, 0.04 mM ascorbic acid. […]
# [2] = molecular target: T1, neuronal dopamine re-uptake transporter (Homo sapiens, UniProt Q01959); assay: functional monoamine transporter assay: [3H]-dopamine uptake in CHO-K1 cells expressing dopamine transporters; type: cell-based; details: functional assays, read-out: affinity for the neuronal dopamine re-uptake transporter
# T1 construct: expressed in transfected cells
# T1 sequence (Q01959 whole entry): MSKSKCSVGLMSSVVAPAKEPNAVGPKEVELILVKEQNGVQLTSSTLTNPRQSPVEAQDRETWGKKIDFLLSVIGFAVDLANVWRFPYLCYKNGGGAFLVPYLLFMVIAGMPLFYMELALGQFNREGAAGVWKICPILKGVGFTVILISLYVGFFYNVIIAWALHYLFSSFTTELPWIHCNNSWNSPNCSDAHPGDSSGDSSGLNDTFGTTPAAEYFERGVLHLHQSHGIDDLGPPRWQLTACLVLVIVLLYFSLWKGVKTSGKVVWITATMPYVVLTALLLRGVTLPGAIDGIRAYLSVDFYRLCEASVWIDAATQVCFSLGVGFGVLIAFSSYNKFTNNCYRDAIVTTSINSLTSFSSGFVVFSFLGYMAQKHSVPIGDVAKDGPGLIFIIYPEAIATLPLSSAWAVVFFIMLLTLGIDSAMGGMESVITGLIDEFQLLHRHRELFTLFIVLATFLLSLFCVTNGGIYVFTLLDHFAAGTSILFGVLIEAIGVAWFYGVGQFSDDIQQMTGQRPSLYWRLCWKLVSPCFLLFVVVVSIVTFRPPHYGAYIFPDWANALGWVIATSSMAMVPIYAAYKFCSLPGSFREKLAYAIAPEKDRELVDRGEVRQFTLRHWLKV
# Method: Using functional monoamine transporter assays, we determined the potential drug targets for (R)-phenylpiracetam.
# Recombinant Chinese hamster ovary (CHO) cells CHO-K1 (ATCC® CCL-61 ™) cells stably expressing dopamine transporters are plated. The cells (2 x 10^5/ml) are pre-incubated with test compound and/or vehicle in modified Tris-HEPES buffer pH 7.1 at 25°C for 20 min and 50 nM [^3H]-dopamine is then added for an additional 15 min incubation period. Non-specific signal is determined in the presence of 10 µM nomifensine. Cells are then solubilized with 1% SDS lysis buffer. Reduction of [^3H]-dopamine uptake by 50 percent or more (≥50%) relative to vehicle controls indicates significant inhibitory activity. Compounds are screened at 10, 1, 0.1, 0.01 and 0.001 µM. These same concentrations are concurrently applied to a separate group of untreated cells and evaluated for possible compound-induced cytotoxicity only if significant inhibition of uptake is observed.
# [3] = in vivo; cited from earlier work
smiles,measurement,setting,value
NC(=O)CN1C[C@@H](c2ccccc2)CC1=O [(R)-phenylpiracetam],locomotor activity (horizontal activity),rats,increases locomotor activity
same,free concentration in extracellular fluid in the brain,[1]; 50 mg/kg,20 µM
same,free concentration in extracellular fluid in the brain,[1]; 100 mg/kg,50 µM
same,IC50,[2],~13 µM and 13 µM
same,memory function in the passive avoidance test,[3],enhanced memory function significantly better compared to (S)-phenylpiracetam
